Assay results: patent publication EP0062319A1, “3-Methyl-1-(2-(3-naphthyloxy)-ethyl)-2-pyrazolin-5-one for the treatment of the metastasis and growth of tumour cells” (BAYER AG, priority 1981, dated 1982)

How the values were obtained:
B-16a-Zellen = assay: DNA synthesis by 3H-thymidine uptake in B-16a cells in vitro; type: cell-based, Mäuse; conditions: 0,1, 1,0, 10 and 25 µg/ml, 4 h and 18 h, Fig. 1, relative to control = 100 %
Source text: (§1) Die antineoplastische Wirksamkeit wurde in vitro durch Messung der DNS-Synthese sowohl von B-16a- als auch von Lewis-Lungenkarzinom-Zellen durch eine Methode gemessen, der die Thymidin-Aufnahme zugrundeliegt. Zellen, die in Vorbereitung der Zellteilung DNS synthetisieren, sind durch ihre Fähigkeit gekennzeichnet, Thymidin aufzunehmen. Demnach ist die Zell-Proliferation mit der DNS-Synthese verbunden. Wenn die Menge der durch die Tumorzellen synthetisierten DNS vermindert wird, so ist das ein Anzeichen dafür, daß die Zellteilung und damit das Tumorwachstum gehemmt worden ist.
(§2) B-16a- und Lewis-Lungenkarzinom-Zellen wurden wie vor- stehend beschrieben erhalten. Die dispergierten Zellen wurden in sterilen 25 ml-Erlenmeyer-Kolben aus Kunststoff auf eine Konzentration von 1 x 10^5 Zellen/ml in MEM verdünnt. Tritium-markiertes Thymidin (^3H) mit einer spezifischen Aktivität von […] (50-80 Ci/mmol) wurde mit […] (2 µCi/ml) zu jedem ml der Zellsuspension hinzugefügt.
(§3) Zu einer Reihe von Kolben, die die B-16 - und Lewis-Lungenkarzinom-Zellen enthielten, wurde die Pyrazolon-Verbindung in Mengen von 0,1 , 1,0 , 10 und 25 µg/ml des Gesamtvolumens hinzugefügt. […]

[1] = tested on: Lewis-Lungenkarzinom-Zellen; assay: DNA synthesis by 3H-thymidine uptake in Lewis lung carcinoma cells in vitro; type: cell-based, Mäuse; conditions: 0,1, 1,0, 10 and 25 µg/ml, 4 h and 18 h, Fig. 1, relative to control = 100 %
Source text: as §1, §2, §3

B-16 -Melanom-Zellen = assay: Tumour cell proliferation and viability in tissue culture; type: cell-based, Mäuse; conditions: 0,1 to 25 µg/ml; cell counts after 8 days; Fig. 2
Source text: Die antineoplastische Wirksamkeit wurde außerdem durch direkte Messung des Wachstums der Tumorzellen in vitro in Gewebekulturen bestimmt. Diese Methode bedient sich des "Plating" oder Aufimpfens einer bekannten Anzahl von Tumorzellen auf ein Wachstumsmedium und der Bestimmung der Wirkung der Anwesenheit der zu prüfenden Verbindung auf die Tumorzellen-Proliferation. […] wurde die antineoplastische Aktivität in vivo in der Weise bestimmt, daß den Mäusen subkutan Tumorzellen injiziert wurden und das Auftreten von […] sowie […] in unbehandelten Kontrolltieren und in mit der Pyrazolon-Verbindung behandelten […] worden […] von 3 x 10^4 Zellen pro Platte überimpft. Die Zellen wurden in einem Medium aus MEM, Hank's Basic Salt Solution und 10 % […] bei Microbiological Associates, Walkersville, Maryland, kultiviert. Nach 24-stündiger Inkubation bei 37°C wurden die ZellZählungen durch […] Medium wurde […] und durch das oben bezeichnete.Medium und Pyrazolon in einem von 0,1 bis 25 μg/ml […]. Die Kontrollgruppen erhielten nur einen Austausch des Mediums. Danach wurde das Pyrazolon enthaltende Medium jeden zweiten Tag ersetzt. Nach 8 Tagen wurden Zellzählungen wie oben beschrieben durchgeführt, und die Lebensfähigkeit der Zellen wurde nach der weiter oben genannten Vitalfarbstoff-Ausschlußmethode (vital dye exclusive method) bestimmt. Die Daten sind dargestellt als Mittelwert der Zahl […] aus […]. […]

Lewis-Lungen-Karzinom = assay: Tumour incidence and final tumour weight of subcutaneous Lewis lung carcinoma in mice; type: in vivo, C57BL/6J Mäuse; conditions: killed day 22; for Gewicht: final tumour weight
Source text: Die antineoplastische Wirksamkeit wurde außerdem durch direkte Messung des Wachstums der Tumorzellen in vitro in Gewebekulturen bestimmt. Diese Methode bedient sich des "Plating" oder Aufimpfens einer bekannten Anzahl von Tumorzellen auf ein Wachstumsmedium und der Bestimmung der Wirkung der Anwesenheit der zu prüfenden Verbindung auf die Tumorzellen-Proliferation. Schließlich wurde die antineoplastische Aktivität in vivo in der Weise bestimmt, daß den Mäusen subkutan Tumorzellen injiziert wurden und das Auftreten von Tumorzellenwachstum sowie das Gewicht der wachsenden Tumorzellen in unbehandelten Kontrolltieren und in mit der Pyrazolon-Verbindung behandelten Tieren bestimmt wurden.
3 mg 3-Methyl-1-[2-(2-naphthyloxy)-ethyl]-2-pyrazolin-5-on wurden in 0,6 ml Ethylalkohol gelöst, und die Lösung wurde mit konzentrierter Natronlauge auf einen pH von 9,5 eingestellt.
Syngeneischen C57BL/6J Wirts-Mäusen wurden 1 x 10^5 Lewis-Lungenkarzinom-Zellen (0,2 ml) subkutan in die Achselhöhlenregion injiziert. Nach einem Zeitraum von 24 Stunden wurde die Pyrazolon-Verbindung 21 Tage lang täglich verabreicht. Die Wirkung der Verabreichung von Theophyllin zusammen mit der Pyrazolon-Verbindung wurde ebenfalls untersucht. Während des Zeitraums wurden die Mäuse unter identischen Bedingungen der Temperatur, Lichteinwirkungsdauer, Ernährung etc. gehalten. Die Mäuse wurden 22 Tage nach der Injektion der Tumorzellen getötet und mittels einer Gesamt-Nekropsie auf die Anwesenheit subkutaner Tumoren untersucht. Vorhandene Tumoren wurden entfernt und auf einer Analysenwaage gewogen.

## CC1=NN(CCOc2ccc3ccccc3c2)C(=O)C1 [3-Methyl-1-[2-(2-naphthyloxy)-ethyl]-2-pyrazolin-5-on]
B-16a-Zellen
  DNS-Synthese (3H-Thymidinaufnahme): konzentrationsabhängige Abnahme der DNS-Synthese
[1]
  DNS-Synthese (3H-Thymidinaufnahme): konzentrationsabhängige Abnahme der DNS-Synthese
B-16 -Melanom-Zellen
  Tumorzellen-Proliferation: die Tumorzellen-Proliferation über den gleichen Dosierungsbereich hemmte
Lewis-Lungen-Karzinom; 0.01 mg daily s.c. for 21 days from 24 h after 10^5 3LL cells s.c.
  Tumor-Häufigkeit Anzahl: 3/12
Lewis-Lungen-Karzinom; 0.01 mg daily s.c. for 21 days
  Tumor-Häufigkeit %: 25%
  Gewicht: 0.74 ± 0.46 mg
Lewis-Lungen-Karzinom; 0.02 mg daily s.c. for 21 days
  Tumor-Häufigkeit %: 33%
  Tumor-Häufigkeit Anzahl: 4/12
  Gewicht: 0.49 ± 0.27 mg
Lewis-Lungen-Karzinom; 0.08 mg daily s.c. for 21 days
  Tumor-Häufigkeit %: 8%
  Tumor-Häufigkeit Anzahl: 1/12
  Gewicht: 0.16 mg
